Measured values reported in patent US7666454B2, “Cosmetic composition comprising an essential oil extracted from Helichrysum italicum” (L'Occitane, priority 2001, dated 2010).

Tested on: human endothelial cells in co-culture (AngioKit)
Assay: AngioKit in vitro angiogenesis model (tubule formation, CD31 staining, image analysis)
Format: cell-based
Experimental: The in vitro model we used was the AngioKit (Biopredic—ref ZHA-1000—lot no. 25173T) which approaches a more global vision of angiogenesis. In this model, human endothelial cells are seeded in a specific medium in co-culture with another type of human cells. In the initial phase, the endothelial cells form small islets. They begin to proliferate and then enter into a migration phase which leads to formation of structures of filamentous tubule form in the matrix. At the end of 10 to 12 days, the connections established form a network of anastomosed tubules. The staining of the tubules is obtained by specific marking of the antigen of surface antigen CD31 (PECAM-1), which is expressed by the endothelial cells.
The test is validated by staining the tubules and verification of the inhibitory and activating action of two pharmacological compounds known to act on angiogenesis. The action on angiogenesis of the active ingredients tested was evaluated by quantitative image analysis.
The cells were cultured in 24-well plates in an incubator at 37° C. under a humid atmosphere containing 5% CO2.
The specific culture medium was eliminated and the cells were placed under different experimental conditions:
Negative control: suramin, agent inhibiting formation of tubules—final concentration: 20 μM;
Positive control: VEGF, activating agent of angiogenesis—final concentration: 2 ng/ml;
Composition for the face: Since this composition of essential oils is not miscible in the culture medium, it was dissolved in absolute ethanol and tested at three concentrations (the non-cytotoxic character of which had been verified in advance by 24-hour contact with normal human fibroblasts): 0.005%-0.01%-0.05% (v/v); and
Solvent control: since ethanol could have effects on angiogenesis, it was tested at the final concentration required for dissolving the essential oils composition: 0.1% (v/v).
Each condition was implemented in duplicate. Microscopic observation of the cells was performed daily to monitor formation of tubules as shown in the photograph of FIG. 2.
The media were eliminated and the conditions were renewed on the 3rd, 6th and 9th day of the experiment. On the 10th day, the cells were fixed and stained: after rinsing in the PBS buffer, the cells were fixed in a 70% ethanol solution cooled at −20° C. for 30 minutes. The cells were then incubated for 1 hour at 37° C. with the human anti-CD-31 ZIS-3090 antibody (TCS CellWorks). […]
Evaluation of the angiogenic power of the compound tested was quantified by image analysis (Olympus IX70 Auto Analysis System) by measuring the length of the tubules developed (in μm) and the number of junctions established within the anastomosed network. […]

Compound | inhibition at 20 µM (Homo sapiens, Endothelial cell, 240 h, read-out: inhibition of the length of the tubular network compared to the control) | number of junctions diminished by a factor compared to the control (suramin 20 μM, day 10) | number of junctions augmented by a factor compared to the control (VEGF 2 ng/ml, day 10) | stimulator effect on the length of the tubular network compared to the control (VEGF 2 ng/ml, day 10)
Cc1ccc(C(=O)Nc2ccc(S(=O)(=O)O)c3cc(S(=O)(=O)O)cc(S(=O)(=O)O)c23)cc1NC(=O)c1cccc(NC(=O)Nc2cccc(C(=O)Nc3cc(C(=O)Nc4ccc(S(=O)(=O)O)c5cc(S(=O)(=O)O)cc(S(=O)(=O)O)c45)ccc3C)c2)c1 [suramin] | 49% | 5.7 | – | –
VEGF | – | – | 1.7 | 54%
